US20250375491A1, “MONASCUS PILOSUS STRAIN, COMPOSITION FOR LOSING WEIGHT AND IMPROVING GUT MICROBIOTA COMPOSITION AND USE OF SAID MONASCUS PILOSUS” (SUNWAY BIOTECH CO., LTD., priority 2024, published 2025)
Marks after values point to notes of the source that are not given here.

Columns and labels:
Type in all cases: in vivo, Sprague-Dawley (SD) rats
[1] = test system: obesity rats induced by high-fat feed; experiment: Body weight change of obesity rats induced by high-fat feed; conditions: high-fat diet rats, Monascinol 0.31 mg/kg BW daily by tube feeding (human 3 mg/day), 8 weeks
Description: • (1) Msol Group: This group used Monascinol with an adult daily dosage of 3 mg/day. • (2) RL and RH Groups: These groups used the red yeast rice obtained by fermenting the Monascus pilosus fermented rice of the present invention and the red yeast rice contained 3 mg/g of Monascinol, wherein the adult daily dosage of the red yeast rice for the RL and RH groups were 0.5 g/day and 2 g/day respectively. 2. Experiment on Evaluation of Adjustment of Body Fat Composition
(§1) Forty male rats of 8-week-old Sprague-Dawley (SD) strain were purchased from BioLASCO (Taipei, Taiwan) for the experiment. The growing environment was one with constant indoor temperature (25±1° C.), relative humidity of 60%, and 12 hours of cyclic light (light time from 8:00 to 20:00). The rats were acclimatized for four days before the formal experiment, then reared in 5 groups of 8 rats each for 8 weeks and were fed in an ad libitum feeding manner, and their body weight, food intake and water intake were measured at regular intervals during the experimental period.
The feeding dosage was calculated according to the method of “Estimating the maximum safe starting dose in initial clinical trials for therapeutics in adult healthy volunteers” published by the U.S. Food and Drug Administration in 2005. Provided that an adult of 60 kg was used as the base, the principle of dosage conversion is 6.2 times of the recommended daily intake of mg/kg bw/day for human as the recommended daily intake of mg/kg bw/day for rat, and the rat group is configured and fed with the dosage as shown in Table 1. The formulae are as follows: Dose intake per kilogram of body weight in rats=Recommended intake in humans÷Body weight 60 kg×6.2, and thus the daily dose intake per kilogram of body weight in rats can be calculated.
The experimental rats were divided into groups, and the obesity rats were induced by high-fat feed as follows (Please refer to Table 1). • i. NOR Group: Normal animal group. • ii. […]
The body weight of rats was measured weekly and the changes in body weight of each group were compared at the end of the experiment.

[2] = test system: obesity rats induced by high-fat feed; experiment: Liver weight and liver/body weight of high-fat diet rats; conditions: Monascinol 0.31 mg/kg BW daily by tube feeding (human 3 mg/day), 8 weeks
Description: as §1
(§2) The experimental rats were divided into groups, and the obesity rats were induced by high-fat feed as follows (Please refer to Table 1). • i. NOR Group: Normal animal group. • ii. HF Group: High-fat control group including obesity rats induced by high-fat feed. • iii. RL Group: Obesity rats induced by high-fat feed and tube-fed daily with red yeast rice powder, equivalent to 0.5 g of red yeast rice containing 1.5 mg of Monascinol per day consumed by an adult […] of 60 kg. • iv. RH Group: Obesity rats induced by high-fat feed and tube-fed red yeast rice powder daily, equivalent to 2 g of red yeast rice containing 6 mg of Monascinol per day consumed by an adult of 60 kg. • v. […]

[3] = test system: obesity rats induced by high-fat feed; experiment: Body fat mass and body fat rate (perirenal and epididymal fatty tissues); conditions: high-fat diet rats, Monascinol 0.31 mg/kg BW daily by tube feeding (human 3 mg/day), 8 weeks
Description: as §1
as §2, with “iv.” for “iv. RH Group: Obesity rats induced by high-fat feed and tube-fed red yeast rice powder daily, equivalent to 2 g of red yeast rice containing 6 mg of Monascinol per day consumed by an adult of 60 kg. • v.”
At the time of sacrifice, fatty tissues surrounding the kidneys and the epididymis (perirenal and epididymal fatty tissues) of the experimental animals were removed, and the their weights were measured and recorded. The body fat rate was calculated as follows: […]

[4] = test system: obesity rats induced by high-fat feed; experiment: Serum biochemical analysis (TC, TG); conditions: high-fat diet rats, Monascinol 0.31 mg/kg BW daily by tube feeding (human 3 mg/day), 8 weeks
Description: as §1
as §2, with “iv.” for “iv. RH Group: Obesity rats induced by high-fat feed and tube-fed red yeast rice powder daily, equivalent to 2 g of red yeast rice containing 6 mg of Monascinol per day consumed by an adult of 60 kg. • v.”
The test was performed using a biochemical autoanalyzer (Model No.: Beckman-700, purchased from Fullerton, California, USA). The items measured were Total Cholesterol (TC), and Triglyceride (TG).

[5] = test system: obesity rats induced by high-fat feed; experiment: Liver lipid extraction and determination (TC, TG); conditions: high-fat diet rats; Monascinol 0.31 mg/kg BW daily by tube feeding (human 3 mg/day), 8 weeks
Description: as §1
(§3) The experimental rats were divided into groups, and the obesity rats were induced by high-fat feed as follows (Please refer to Table 1). • i. NOR Group: Normal animal group. • ii. HF Group: High-fat control group including obesity rats induced by high-fat feed. • iii. […]
(§4) 0.1 g of liver tissue or fecal powder was weighed and 1 mL of chloroform:methanol (2:1, v/v volume ratio) was added, and homogenized with a tissue homogenizer and centrifuged to obtain the supernatant. […] The TC concentration was analyzed using a commercially available biochemical reagent (Model No. BXC 0261, Fortress), and the TG concentration was analyzed using a commercially available biochemical reagent (Model No. BXC 0271, Fortress), as per the kit instruction manual.

[6] = test system: obesity rats induced by high-fat feed; experiment: Fecal lipid extraction and determination (TC, TG); conditions: high-fat diet rats; Monascinol 0.31 mg/kg BW daily by tube feeding (human 3 mg/day), 8 weeks
Description: as §1, §3, §4

[7] = test system: gut microbiota of high-fat diet rats; experiment: Gut microbiota fecal analysis (full-length 16S sequencing)
Description: About 0.3 g of fresh feces was collected into 1.5 mL of eppendorf before fasting for sacrifice, sealed with parafilm, stored at −80° C. for analysis, and sent to BioTools (New Taipei, Taiwan) for analysis.
Total genomic DNA (QIAamp PowerFecal DNA, Qiagen) was extracted from the samples. The DNA concentration was determined by Qubit 4.0 fluorometer (Thermo Scientific) and adjusted to 1 ng/μL. The full-length 16S gene (V1-V9 region) was amplified by 16S gene-specific primers with barcodes (Forward primer 1): 5′ Phos/GCATC-16-base barcode-Sequence ID Number 11, Reverse primer 1: 5′Phos/GCATC-16-base barcode-Sequence ID Number 12). PCR reactions were performed using KAPA HiFi HotStart ReadyMix (Roche): at 95° C. for 3 min. and 20-27 cycles (Sample Dependency): at 95° C. for 30 sec., at 57° C. for 30 sec., at 72° C. for 60 sec; at 72° C. for 5 min., and finally stored at 4° C. for future use. PCR products were monitored on 1% agarose gels. Samples of approximately 1500 bp bright bands were selected and purified by using AMPure PB Beads for SMRTbell library preparation.
SMRTbell libraries were prepared based on full-length 16S gene amplifications with barcoded primers used in the Multiplex SMRTbell Library Preparation and Sequencing Program (Pacbio). Sequencing was performed in circular consensus sequencing (CCS) mode on a PacBio Sequel Ile instrument, generating HiFi read with a Phred Scale=30. The DNA to be tested will be sequenced iteratively. By comparing the results of the reverse sequencing, sequencing errors will be corrected, ultimately achieving a high accuracy of >99.9% (QV30).
Information Analysis (Sequential data processing/denoising and species annotation) The sample data from the downstream data were sorted out according to the Barcode sequence and PCR amplification primer sequences. After the removal of the barcodes and primer sequences, the data were imported into QIIME2 (v2019.7.0; https://qiime2.org/) and all the sequences of the samples were saved into one corresponding object Artifacts. QIIME2 cutadapt was used to remove the amplicon variant primers (forward primer 2: Sequence ID Number 13; reverse primer 2: Sequence ID Number 14), and the sequence with the primers removed will be used as QIIME2 DADA2. Input Reads.
The denoising analysis began with the filtering of sequences, setting each sequence to be cropped to a specified length (forward reads: 280 bp; reverse reads: 220 bp) and setting the MaxEE (forward reads: 2; reverse reads: 2) parameter as the maximum number of expected error bases allowed for the sequence. This was followed by denoising, the core algorithm of DADA2 utilizing the information of sequence abundance, quality score, and relationships between sequences to correct the […] of sequencing errors and to infer the real sequences. Splicing was performed after denoising each end of the sequence (minimum overlap length 20 bp; overlap region was not allowed to be mismatched). Finally, the spliced sequences are subjected to chimera removal by comparing the sequences with higher abundance in the sample. If a sequence with low abundance is similar to several sequences, it can be recognized as a chimera and removed from the sample. Sequences after denoising analysis were used as representative sequences of Amplicon Sequence Variants (ASVs) and can be obtained from the ASV table for subsequent species annotation. The QIIME2 feature-classifier (v2019.7.0; https://qiime2.org/) was used to select machine learning-based classification methods and to train naïve bayes classifiers for different databases and specific variability regions. The taxonomic annotation of ASVs represented by this classifier yields taxonomic information and the composition of the microbial phyla of each sample at each classification level including kingdom, phylum, class, order, family, genus, and species.
Welch's t-test was analyzed by STAMP (v2.1.3), and the intergroup species differences were plotted as bar charts. […]

[8] = FIGS. 9A-9D, high-fat diet rats
[9] = order level, FIG. 7C, high-fat diet rats
[10] = phylum level, FIG. 7A, high-fat diet rats vs HF group

Substance: Monascinol [Msol]
- Weight before Sacrifice ([1]; after fasting): 488.5 ± 31.7^a g
- Weight 8 week [1]: 512.1 ± 31.1^a g
- Weight gain [1]: 220.8 ± 38.8^a g
- Liver Weight/Body Weight [2]: 3.28 ± 0.37^b %
- Liver weight [2]: 16.84 2.31^b g
- Fat/body weight ([3]; body fat percentage): 3.35 ± 0.55^b %
- Fat weight ([3]; perirenal and epididymal fat): 17.95 3.55^b g
- TC [4]: 65.0 ± 10.4^b mg/dL
- TG [4]: 61.7 ± 10.7^a mg/dL
- Liver TC [5]: 5.05 ± 0.54^a mg/g
- Liver TG [5]: 14.40 ± 1.57^a mg/g
- Feces TC [6]: 46.22 ± 4.72^c mg/g
- Feces TG [6]: 61.27 4.80^cd mg/g
- F/B ratio (abundance ratio of Firmicutes to Bacteroidetes) ([7]; FIG. 7A, high-fat diet rats vs HF group): decrease
- effect on B. thetaiotaomicron in the intestines [7, 8]: most significant
- intestinal abundance of Dubosiella newyorkensis [7, 8]: increase
- bacterial abundance of Bifidobacteriales in the intestine [7, 9]: increased
- intestinal abundance of Verrucomicrobiales [7, 9]: increased
- abundance of Eubacteriales ([7]; order level, FIG. 8, HF group 50.14%, high-fat diet rats, Monascinol (MSol, 3 mg/day), 8 weeks): 43.21%
- abundance of Bacteroidetes [7, 10]: increase
- abundance of Firmicutes [7, 10]: decrease
- abundance of A. muciniphila ([7]; species level, FIG. 7F, high-fat diet-induced obesity rats): increased
